Patent US20250339409A1, “USES OF PAN BET INHIBITORS” (VYNE THERAPEUTICS INC., priority 2021, published 2025)

System: 92 target genes related to melanogenesis
Test: RHE vitiligo model: gene expression analysis (TaqMan low density array, RT-qPCR)
Assay type: cell-based, human
Parameters: key to FC of XPC gene expression / FC of GNAS gene expression / FC of ATP7A gene expression / FC of TYR gene expression / FC of RAB27A gene expression / FC of KITLG gene expression / FC of ADCY2 gene expression: fold change in expression by comparative Ct (ΔΔCt) method
Experimental: At the end of the treatments, total RNAs is extracted from 3 epidermis per condition (n=3) using the Qiagen RNeasy kit (Qiagen; 74106). Epidermis is rinsed with cold PBS and lysed in the ad hoc buffer provided in the kit. Extraction is performed according to the supplier's recommendations. The collected RNAs is stored at −80° C.
The RNA concentration is determined by spectrophotometric measurement (QIAxpert, Qiagen) and the RNA quality is analyzed by capillarity electrophoresis (Agilent Bioanalyzer 2100-Agilent RNA 6000 Nano Kit, 5067-1511). The integrity of the total RNA is assessed by visualization of intact ribosomal RNA bands. For the total RNA from higher eukaryotes, the size of the ribosomal bands should be 1.9 kb for the 18S-RNA and 4.7 kb for the 28S-RNA. The intensity of the band corresponding to the 28S RNA must be greater than the intensity of the band corresponding to the 18S-RNA (left profile, in image below). Small and diffuse bands representing low molecular weight RNAs (tRNA and 5S ribosomal RNA) may be present. Degradation of the RNA is apparent as a smearing of ribosomal RNA bands and high molecular weight background as shown below (right profile, in image below).
Reverse transcription is performed with the high-capacity RNA-to-cDNA kit (Applied Biosystems; 438706) from total RNA according to the manufacturer's instructions. The cDNAs are then stored at −20° C. until use in polymerase chain reactions.
The microfluidic TaqMan qPCR arrays (or TaqMan low density arrays) were designed by StratiCELL and manufactured on demand by Applied Biosystems. […]
The TaqMan arrays are processed as described by the manufacturer's instructions (Micro Fluidic Card Getting Started Guide, Applied Biosystems). Briefly, cDNAs are mixed with a specific buffer (TaqMan Fast Advanced Master Mix, 4444557, Applied Biosystems) before being injected into the arrays and dispersed into the wells by centrifugation. Arrays are sealed and qPCRs are run using the Quantstudio7 Real-Time PCR System (Applied Biosystems) and its software (QuantStudio real time PCR Software v1.3. software, Applied Biosystems).
Threshold cycles (Ct) are obtained for each gene. Results files are exported from the qPCR device and analyzed using the DataAssist Software (v3.00, Applied Biosystems) designed to perform relative quantification of gene expression using the comparative Ct (ΔΔCt) method, through a combination of statistical analysis.
The data obtained for the conditions treated with the formulations is compared to the untreated condition or to the condition treated with the vehicle. The effects of the cytokine cocktail stimulation are analyzed as well by comparison of the data obtained for the untreated control (unstimulated) to the data obtained for the stimulated untreated control. The Ct values are normalized to the mean Ct of 3 housekeeping genes present on the array. The maximum Ct cut-off value was fixed at 36 cycles meaning that Ct values above 36 are not considered in the analysis. […]

[1] = Stimulated + BETi1 1% vs Stimulated + BETi1 vehicle, results as originally presented (transcription error for some genes)
[2] = Stimulated + BETi1 1% vs Stimulated + BETi1 vehicle, results as originally presented (transcription error for some genes), inconclusive, Ct of some replicates above 36
[3] = Stimulated RHE treated with BETi1 at 0.01% vs BETi1 vehicle
[4] = Stimulated RHE treated with BETi1 at 0.1% vs BETi1 vehicle
[5] = stimulated RHE, vs stimulated + vehicle
[6] = stimulated RHE, vs stimulated + vehicle, listed as BETi1 0.1%
[7] = stimulated RHE, vs stimulated + vehicle, listed as BETi1 1%

Cn1cc(-c2cccc(O)c2Oc2ccccc2)c2cc[nH]c2c1=O [BETi1]
FC of OCA2 gene expression [1]: 0.3088 | FC of PCNA gene expression [1]: 7.0134 | FC of POMC gene expression [1]: 0.1471 | FC of PTGER3 gene expression [1]: 0.4492 | FC of RAB3A gene expression [1]: 14.5685 | FC of RAB27A gene expression [1]: 0.3039 | FC of RAB32 gene expression [1]: 0.2366 | FC of RAB38 gene expression [1]: 0.3683 | FC of SLC24A5 gene expression [1]: 0.1544 | FC of SNAP25 gene expression [1]: 0.2547 | FC of SOX9 gene expression [1]: 0.1051 | FC of SOX10 gene expression [1]: 0.4094 | FC of STX6 gene expression [1]: 0.4034 | FC of TYR gene expression [1]: 0.4259 | FC of USF1 gene expression [1]: 0.5772 | FC of WNT16 gene expression [1]: 10.0801 | FC of XPC gene expression [1]: 1.8367 | FC of ASIP gene expression [2]: 0.5127 | FC of CALML6 gene expression [2]: 0.497 | FC of CAMK2A gene expression [2]: 0.4753 | FC of GNAO1 gene expression [2]: 0.4753 | FC of PTGER1 gene expression [2]: 0.4753 | FC of AP1S1 gene expression [3]: 1.3312 | FC of ASIP gene expression [3]: 0.6303 | FC of CALML6 gene expression [3]: 0.6303 | FC of CAMK2A gene expression [3]: 0.6303 | FC of GADD45A gene expression [3]: 0.3574 | FC of GNAO1 gene expression [3]: 0.6303 | FC of POMC gene expression [3]: 0.4147 | FC of RAB3A gene expression [3]: 3.5532 | FC of ADCY2 gene expression [4]: 0.1137 | FC of AP1M1 gene expression [4]: 0.6311 | FC of ATP2A2 gene expression [4]: 0.2769 | FC of BAD gene expression [4]: 0.2735 | FC of CALML6 gene expression [4]: 0.5429 | FC of CAMK2A gene expression [4]: 0.5043 | FC of EDN1 gene expression [4]: 0.0413 | FC of EDNRB gene expression [4]: 0.2737 | FC of GADD45A gene expression [4]: 0.1803 | FC of GNAI1 gene expression [4]: 0.5815 | FC of HPS4 gene expression [4]: 0.4224 | FC of IL1A gene expression [4]: 0.0454 | FC of IL1B gene expression [4]: 0.0727 | FC of KITLG gene expression [4]: 1.8415 | FC of MAPK14 gene expression [4]: 0.4724 | FC of MLPH gene expression [4]: 0.355 | FC of MYO5A gene expression [4]: 0.5462 | FC of PCNA gene expression [4]: 3.2615 | FC of POMC gene expression [4]: 0.1665 | FC of PPIA gene expression [4]: 1.6969 | FC of PTGER3 gene expression [4]: 0.4799 | FC of RAB3A gene expression [4]: 10.8195 | FC of RAB32 gene expression [4]: 0.2378 | FC of RAB38 gene expression [4]: 0.5643 | FC of SLC24A5 gene expression [4]: 0.272 | FC of SOX9 gene expression [4]: 0.1155 | FC of SOX10 gene expression [4]: 0.4196 | FC of STX6 gene expression [4]: 0.4214 | FC of WNT16 gene expression [4]: 8.7922 | RQ (fold change) AP1S1 [5]: 1.3312 | RQ (fold change) APAF1 [5]: 1.5797 | RQ (fold change) HSP4 [5]: 0.6711 | RQ (fold change) KITLG [5]: 1.8415 | RQ (fold change) POMC [5]: 0.5586 | RQ (fold change) PPIA [5]: 1.6969 | RQ (fold change) XPC [5]: 1.6569 | RQ (fold change) RAB3A (stimulated RHE, vs stimulated + vehicle, listed as BETi1 0.01%): 3.5532 | RQ (fold change) EDN1 [6]: 0.0413 | RQ (fold change) IL1A [6]: 0.0454 | RQ (fold change) IL1B [6]: 0.0727 | RQ (fold change) PCNA [6]: 3.2615 | RQ (fold change) RAB3A [6]: 10.8195 | RQ (fold change) SOX9 [6]: 0.1155 | RQ (fold change) WNT16 [6]: 8.7922 | RQ (fold change) EDN1 [7]: 0.0395 | RQ (fold change) IL1A [7]: 0.0124 | RQ (fold change) IL1B [7]: 0.0208 | RQ (fold change) PCNA [7]: 7.0134 | RQ (fold change) RAB3A [7]: 14.5685 | RQ (fold change) SOX9 [7]: 0.0882 | RQ (fold change) WNT16 [7]: 10.0801
